Reference: publication PMC10009108, “Design, synthesis and screening of indole acetic acid-based tri-azo moieties as antioxidants, anti-microbial and cytotoxic agents” (Frontiers in Pharmacology, 2023)
In brackets after ≈: the same amount, converted by molar mass.

Tests used:
[1] = tested on: Streptomyces 85 E strains; experiment: Protein kinase inhibition assay; format: cell-based; set-up: key: Active = Bacterial activity; --- = no activity; conditions: Sample Concentration = 20 μg/mL; Surfactin B 20 μg/mL
Procedure: The protocol followed for this is mentioned ([Fatima et al., 2015]). To assess the test compound’s inhibitory potential, Streptomyces 85 E strains were used, which were refreshed in tryptone soya broth at 37 for 1 day. Spores from refreshed cultures were utilized to prepare the bacterial culture. 100 μg compound was loaded on 5 mm discs of filter paper. These were kept on sowed plates. DMSO-permeated discs were the -ve control. The incubation period was 7 days, and outcomes were stated as bald and clear zones of inhibition.
These synthetic products were evaluated to estimate the inhibitory potential for protein kinase of […] 85 E. Protein kinase is involved with the mycelium production of this species, so the growth patterns were observed as the bald zone. […] One of the propitious targets in cancer treatment is the inhibition of protein kinases. Protein phosphorylation by protein kinases at various residues regulates diverse biological processes, which may include apoptosis, proliferation and differentiation of cells. Deregulation at any step in early tumorigenesis may lead to cancer ([Yao et al., 2011]). Aerial hyphae formation in Streptomyces depends upon protein kinase activity; this scenario is exploited in this test; to inquire about these compounds’ kinase inhibition potential and to look at their anti-cancer potential. The advantage of using Streptomyces for kinase inhibition assay is its predisposition to a wide range of eukaryotic cells. Whole-cell assay of Streptomyces not only identifies the compound’s cytotoxic potential but also identifies signal transduction inhibitors for various activities, e.g., antitumor, anti-mycobacterial, and anti-infective ([Waters et al., 2002]). […] Activity with a bald zone of 10.5 mm and a clear zone of 7.5 mm, following is 5a with a bald zone of 9 mm and a clear zone of 6 mm, and for 5g, values are 7.5 and 6 mm, respectively. It means that these compounds have the potential for protein kinase inhibition as well as the toxicity of the compound.

[2] = tested on: Aspergillus flavus (FCBP-0064); experiment: Antifungal disc diffusion assay; format: cell-based; set-up: key to Zone of inhibition, A. flavus: --- = no anti-fungal activity; conditions: 20 μg/disc
Procedure: The antifungal response to these chemical moieties was evaluated through a procedure designated by ([Zahra et al., 2017]). Amphotericin B (4 mg/mL DMSO) is used as + ve control and DMSO as-ve one (5 μL/disc). Sterile SDA-coated plates were used, on which 100 µL of suspension of spores for each strain (previously reaped-in-Tween-20 solution) was spread. Discs of sterile filter paper containing 5 µL of sample solution (4 mg/mL DMSO) were kept on plates and incubated for 2 days at 28°C. Zones of inhibition were recorded.
The Synthetic compound library was subjected to an antifungal assay using five different strains of Fungai, i.e., Fusarium solani (FCBP-0291), Aspergillus fumigatus (FCBP-66), Aspergillus flavus (FCBP-0064), Aspergillus niger (FCBP-0198) and Mucor species (FCBP-0300). Amphotericin B was the standard drug used. […] The outcomes are concise in Table 5.

[3] = tested on: Escherichia coli (ATCC-25922); experiment: Antibacterial assay, micro broth dilution; format: cell-based; set-up: key: Active = Bacterial activity; --- = no activity; conditions: 25 μg/mL
[4] = tested on: Streptomyces 85 E strains; experiment: Protein kinase inhibition assay; format: cell-based; set-up: key to Bald zone: Active = Bacterial activity; --- = no activity; conditions: Sample Concentration = 20 μg/mL; Surfactin B 20 μg/mL
[5] = tested on: Klebsiella pneumoniae (ATCC-1705); experiment: Antibacterial assay, micro broth dilution; format: cell-based
From the text: (§1) The micro broth dilution method was used to establish the antibacterial potential of test samples against Staphylococcus aureus (ATCC-6538), Bacillus subtilis (ATCC-6633), Escherichia coli (ATCC-25922), Klebsiella pneumoniae (ATCC-1705), and Pseudomonas aeruginosa (ATCC-15442) and for the resistant strains of MRSA Staphylococcus aureus, P. aeruginosa and Escherichia coli. The procedure used is described by ([Sarker et al., 2007]). Bacterial inoculum was formed under aseptic conditions keeping the density near 5 × 10^4 CFU/mL in pre-autoclaved nutrient broth. Test samples of an aliquot of 5 µL were shifted to labeled wells of 96 well plates, and after that addition of 195 µL of nutrient broth; was accomplished. After that, a 2-fold serial dilution of every sample was arranged to get final concentrations of 12.5 μg/mL. Then, with the help of a micropipette, 195 µL of bacterial culture of respective strains was poured into each well; further advancement was incubating of plates for 30 min at the temperature of 37°C. […] Incubation of plates was again carried out at 37°C for 1 day, absorbance was noted, and net change in turbidity was the difference between two values of absorbance.
(§2) Schiff base tri-azo compounds were investigated for antibacterial potential. […] 6.25 μg/mL for 5b and 5g, and the least, Table 4 3.12 μg/mL was for 5f. […] Substituents with electron-withdrawing attributes, e.g., -NO2, -Cl, -OH on the aromatic ring, assert a great impact on the antibacterial activity of synthetic compounds. It is also observed that an increase in the number of -OH groups tend to enhance the activity ([Hosamani and Shingalapur, 2011]). Due to the difference in cell-wall composition of Gram + ve and -ve bacteria, different compounds show different features towards the same micro-organism ([Goszczyn’ska et al., 2015]).

[6] = tested on: resistant E.coli; experiment: Antibacterial assay, resistant strains; format: cell-based, Escherichia coli; set-up: key to Antibacterial activity, resistant E.coli: Activity: Positive = have anti-bacterial activity; --- = no anti-bacterial activity; conditions: 25 μg/mL; resistant strain
From the text: as §1, §2

[7] = Total reducing power (TRP assay); conditions: mean ± SD
Procedure: The process used for TRP was illustrated by ([Bibi et al., 2011]). The […] method is used for 100 μL of each solution, 200 μL Phosphate buffer (0.2 M, pH 6.6), and 250 μL of potassium ferricyanide was mixed and incubated at 50°C for 20 min, to this solution, 10 percent (200 μL) trichloroacetic acid was added, centrifugation was done at 3,000 rpm for 10 min, the supernatant was collected, added with FeCl3 (50 μL), and shifted to the microplate. Absorbance was recorded at 700 nm. Ascorbic acid (100 μg/mL DMSO) is the +ve control for the test, and dimethyl sulfoxide (DMSO) is the blank.
The primary mechanism of TRP assay is based on the compound’s capacity to reduce free radicals, which are generated during the procedure. i.e., Fe^3+ is reduced to Fe^2+ ([Lee et al., 2015]). Various factors determine the antioxidant potential of the compound; a few to explain include the chemical attributes, nature of antioxidant moieties, conditions and mechanism of the reaction, which accounts for the reason for a compound’s activity in one assay and none-to-less response in the other ([Francenia Santos-Sanchez et al., 2019]). However, compounds with hydroxyl and methoxy groups form the bases for potential candidates as an antioxidant ([Rakesh et al., 2015]).

Row | Compound | Clear zone [1] | Zone of inhibition, A. flavus [2] | Antibacterial activity, E. coli: Activity [3] | Bald zone [4] | MIC ([5]; ATCC1705) [µg/mL] | Antibacterial activity, resistant E.coli: Activity [6] | TRP [7] [µg AAE/mg] | Clear zone [4] [mm] | MIC ([5]; ATCC1705, 24 h) [µg/mL]
1 | COc1cccc(C=Nn2c(Cc3c[nH]c4ccccc34)n[nH]c2=S)c1 [Compound 5b] | 7.5 mm | --- | --- | 10.5 mm | 6.25 (≈ 17.2 µM) | --- | 706.42 ± 0.004 |  | 
2 | S=c1[nH]nc(Cc2c[nH]c3ccccc23)n1N=Cc1ccc(Cl)cc1 [Compound 5c] | --- | --- | Active | --- | 12.5 (≈ 34 µM) | --- |  |  | 
3 | COc1cc(C=Nn2c(Cc3c[nH]c4ccccc34)n[nH]c2=S)cc(OC)c1OC [Compound 5g] |  | --- | --- | 7.5 mm | 6.25 (≈ 14.8 µM) | --- | 642.67 ± 0.001 | 6 | 
4 | Oc1cccc(C=Nn2c(Cc3c[nH]c4ccccc34)n[nH]c2=S)c1 [Compound 5a] | 6 mm | --- |  | 9 mm | 12.5 (≈ 35.8 µM) |  | 592.26 ± 0.007 |  | 
5 | O=[N+]([O-])c1ccc(C=Nn2c(Cc3c[nH]c4ccccc34)n[nH]c2=S)cc1 [Compound 5d] | --- | --- | Active | --- | 12.5 (≈ 33 µM) | --- |  |  | 
6 | Oc1ccc(C=Nn2c(Cc3c[nH]c4ccccc34)n[nH]c2=S)cc1 [Compound 5e] | --- | --- | Active | --- | 12.5 (≈ 35.8 µM) | --- | 619.18 ± 0.010 |  | 
7 | S=c1[nH]nc(Cc2c[nH]c3ccccc23)n1N=Cc1cccc(Cl)c1 [Compound 5f] | --- | --- | --- | --- | 3.12 (≈ 8.48 µM) | --- |  |  | 3.12 (≈ 8.49 µM)
